# From patent publication US6896895B2, “Carotenoid esters, carotenoid-enriched feeds, and methods of pigmenting foods and foodstuffs” (DSM IP Assets B.V., priority 2000, dated 2005)
# Marks after values point to notes of the source that are not given here.
# How the values were obtained:
# [1] = tested on: skin and shanks of broilers; experiment: Reflectance colorimetry and visual classification of skin and shanks of broilers; type: in vivo, broiler chickens (Ross 308, Ross 508); set-up: key to Shanks Visual Classification / Skin Visual Classification: −; (+); +; ++ = good color; o = orange; conditions: dry carcasses, average over doses, Table 6
# Description: (§1) Pigmentation efficacy was assessed in egg yolk, in the back skin of the broiler carcass, and in broiler shanks by reflectance colorimetry accompanied by visual scoring (Roche Colour Fan). The deposition of the ethyl-β-apo-8′-carotenoate (control) and the other carotenoid esters was determined in egg yolk and in the broiler back skin. In addition, the carotenoid levels in plasma and abdominal fat were measured.
# (§2) The trials were carried out using chickens of the type Ross 308 (trials MC-24/98 and MC-02/99) and Ross 508 (trials MC-11/99, MC-16/99, MC-24/99, and MC-03/00) (Couvir de la Bohardière, F-49290 Saint Laurent de la Plaine). One-day old broiler chickens, separated by sex, were divided by weight into experimental groups of ten animals each and reared in floor pens littered with wood shavings. The chickens were fed a low carotenoid basal grower diet until day 22 (trials MC-24/98, MC-02/99, and MC-11/99) or until day 15 (trials MC-16/99, MC-24/99, and MC-03/00). The low carotenoid basal grower diet contained less than 2 mg total xanthophylls per kg of feed, and its composition is described in Table 2. For the subsequent experimental period of three weeks, the birds received the basal diet supplemented with an appropriate pigment. The feed was given in the form of crumbled pellets during the first week and as pellets thereafter. The animals had unrestricted access to feed and water. A given treatment involved one group of male and one group of female chickens. Each group of chickens was weighed at day 22 (trials MC-24/98, MC-02/99, and MC-11/99) or day 15 (trials MC-16/99, MC-24/99, and MC-03/00) and on day 43. On day 42, five chickens per group were selected at random, labelled, and blood samples were taken from the jugular vein. At the end of the experiment (day 44) the animals were slaughtered in a commercial slaughterhouse (Freyburger, Dannemarie, France). The following day, the color of the skin (hind back of carcasses) and the shanks of the labelled chicken were measured by reflectance colorimetry (Minolta CR 200 apparatus, CIE-Lab system). Samples of the dorsal skin and abdominal fat were obtained, pooled for each experimental group, and the carotenoid concentration was determined. The concentration of carotenoids in feed, plasma, skin, and abdominal fat was determined by standard procedures as described after Tables 1 and 2.
# The color of broiler skin and shanks was measured using a tristimulus Minolta CR-300 Chromameter with diffuse D65-illumination and a 0° viewing angle. The color of the skin was read at three different points on the back of the dry broiler carcasses and average values of the triple measurements were recorded. The color of shanks was measured using single measurements at the ball between the toes.
# (§3) The color data were expressed as CIE L*a*b*-values including h*(hue) and C* (chroma). The values given in the tables per treatment and trial represent averages of color measurements of four egg yolk pools, ten broiler back skins, or ten broiler shanks (5 males and 5 females).
# [2] = Carotenoid ester content in plasma, back skin and abdominal fat of broilers (HPLC); type: in vivo, broiler chickens (Ross 308, Ross 508); conditions: average over doses, Table 4
# Description: as §1, §2
# The content of the various carotenoid esters in feed was determined according to the method of Schierle, et al. (J. Schierle , N. Faccin, V. Riegert, Analytical Methods for Vitamins and Carotenoids in Feed, Revised supplement: Determination of Stabilized Apocarotenoic Ester and Canthaxanthin in Premixes and Feeds, Roche publication no. 50771 (1995), publicly available from. F. Hoffmann-La Roche Ltd., CH-4070 Basel). This method was modified in that the mobile phase of the normal-phase HPLC contained 0.5% instead of 7% acetone in n-hexane, improving the separation of the E/Z-isomers of the carotenoid esters. Peaks were related to all-E- and Z-isomers of the various carotenoid esters by chromatography of heat-isomerized solutions of the respective reference substances in n-hexane. The HPLC system was calibrated with the all-E-isomer of ethyl β-apo-8′-carotenoate. The response factor of the various derivatives was deduced from that of ethyl β-apo-8′-carotenoate taking into account the respective molecular weight. The content of the Z-isomer fractions was calculated based on the response of the all-E-isomer and using a correction factor of 1.4 to account for the lower specific absorbance of the Z-isomers.
# (§4) The HPLC-system for in-feed analysis was also used to quantify the carotenoid esters in egg yolk, broiler tissues, and broiler plasma, but the extraction procedure was different for the various matrices.
# For plasma extraction, 1.0 g of the well-mixed plasma sample was introduced into a 10 ml test tube with 1.0 ml of demineralized water and 4.0 ml of ethanol, and the contents mixed on a Vortex shaker. […]
# [3] = tested on: egg yolk; experiment: Egg yolk colour: reflectance colorimetry and Roche Yolk Colour Fan; type: in vivo, laying hens (ISA Brown); conditions: egg yolk, laying hens
# Description: as §1
# The trials were carried out following the standard experimental design used for egg yolk pigmentation trials at the Roche Research Center for Animal Nutrition (CRNA, F-68305 Village-Neuf, France). Each year in February the pigmentation trials are started with a new flock of layers. At the beginning of the trials the age of the laying hens (192 birds, type ‘ISA Brown’) were as follows:
# (§5) Preceding the trials the hens were fed a low carotenoid basal diet (produced at the CRNA) without carotenoid supplementation for at least 28 days. During the trials, the control group received the low carotenoid basal diet containing less than 2 mg total xanthophylls per kg of feed. The other animals were fed this diet supplemented with the appropriate pigments for three weeks. The diet was given to the animals ad libitum in mash form. The hens had free access to tap water. Beside the unsupplemented control treatment, treatments were carried out involving the provision of supplemented feed, the results of these treatments being presented in Tables 7-9.
# Egg yolk color was assessed as described by Steinberg, et al. (Arch. Geflügelk 64 (4), 180-187 (2000)). The yolks were manually separated from the whites of the eggs. The isolated yolks of three to six eggs were combined, weighed, and stirred with a glass rod until the color appeared homogeneous. The color hue was visually scored using the Roche Yolk Colour Fan (RYCF, version 1993). An aliquot of the pooled egg yolks was transferred into a glass cuvette yielding an approximately 2 cm thick layer. The color was then measured by means of a Dr. Lange Xeno Color LS 100 spectro-colorimeter with diffuse D65-illumination and a 8° viewing angle.
# as §3
# [4] = Carotenoid ester content and deposition rate in egg yolk of laying hens (HPLC); type: in vivo, laying hens (ISA Brown); conditions: egg yolk; for Deposition Rate % of Controls: Table 10
# Description: as §1
# Each year in February the pigmentation trials are started with a new flock of layers.
# as §5, with “water.” for “water. Beside the unsupplemented control treatment, treatments were carried out involving the provision of supplemented feed, the results of these treatments being presented in Tables 7-9.”
# Peaks were related to all-E- and Z-isomers of the various carotenoid esters by chromatography of heat-isomerized solutions of the respective reference substances in n-hexane. The HPLC system was calibrated with the all-E-isomer of ethyl β-apo-8′-carotenoate. The response factor of the various derivatives was deduced from that of ethyl β-apo-8′-carotenoate taking into account the respective molecular weight. The content of the Z-isomer fractions was calculated based on the response of the all-E-isomer and using a correction factor of 1.4 to account for the lower specific absorbance of the Z-isomers.
# as §4
# For the extraction of egg yolk, 10 g of pooled and homogenised yolk were mixed with 10 ml of demineralized water using a dispersion instrument (Polytron). 1.0 g of diluted egg yolk was introduced into a 10 ml test tube with 1.0 ml of demineralized water and 2.0 ml of ethanol, and the contents were mixed on a Vortex shaker. After addition of 4.0 ml of n-hexane, the mixture was further treated as described for plasma.
# [5] = trial H-18/99, 5.0 mg/kg feed, Table 8
# [6] = trial H-18/99, 5.0 mg/kg feed, Table 10
# [7] = trial H-12/99, 2, 4, 8 mg/kg feed, Table 8
# [8] = trial H-12/99, 2, 4, 8 mg/kg feed, Table 10
# [9] = trials H-18, 22/99, 1, 2, 4, 5, 8 mg/kg feed, Table 8
# [10] = trials H-18, 22/99, 1, 2, 4, 5, 8 mg/kg feed, Table 10
# [11] = control, n = 16, 1.0-8.0 mg/kg feed
SMILES,Shanks Chroma C*ab % of Controls [1] [%],Shanks Color Hue h*ab % of Controls [1] [%],Shanks Visual Classification [1],Skin Chroma C*ab % of Controls [1] [%],Skin Color Hue h*ab % of Controls [1] [%],Skin Visual Classification [1],Analytical Content as Equivalent of Ethyl β-apo-8′-carotenoate in % of control Fat [2] [%],Analytical Content as Equivalent of Ethyl β-apo-8′-carotenoate in % of control Plasma [2] [%],Analytical Content as Equivalent of Ethyl β-apo-8′-carotenoate in % of control Skin [2] [%],"Color Fan Value % of Controls [3, 5] [%]","Chroma C*ab % of Controls [3, 6] [%]","Color Fan Value % of Controls [3, 6] [%]","Color Hue h*ab % of Controls [3, 6] [%]","Deposition Rate Target Values % of Controls [4, 5] [%]","Ethyl β-apo-8′-carotenoate Equivalents % of Controls [4, 5] [%]","Deposition Rate % of Controls ([4]; trial H-18/99, 5.0 mg/kg feed) [%]",further results
"COC(=O)C(C)=CC=CC(C)=CC=CC=C(C)C=CC=C(C)C=CC1=C(C)CCCC1(C)C [(1), methyl beta-apo-8′-carotenoate]",97,101,(+),97,100,(+),85,88,87,130,104,130,99,99,95,99,–
"CCCOC(=O)C(C)=CC=CC(C)=CC=CC=C(C)C=CC=C(C)C=CC1=C(C)CCCC1(C)C [(2), n-propyl beta-apo-8′-carotenoate]",108,99,(+),93,97,(+),39,68,45,–,–,–,–,–,–,–,"Color Fan Value % of Controls [3, 7]: 110%; Chroma C*ab % of Controls [3, 8]: 95%; Color Fan Value % of Controls [3, 8]: 110%; Color Hue h*ab % of Controls [3, 8]: 101%; Deposition Rate Target Values % of Controls [4, 7]: 77%; Ethyl β-apo-8′-carotenoate Equivalents % of Controls [4, 7]: 73%; Deposition Rate % of Controls ([4]; trial H-12/99, 2, 4, 8 mg/kg feed): 77%"
"CC(C=CC=C(C)C=CC1=C(C)CCCC1(C)C)=CC=CC=C(C)C=CC=C(C)C(=O)OCC(C)C [(4), isobutyl beta-apo-8′-carotenoate]",72,105,(+),84,98,(+),–,58,–,116,104,116,101,83,74,83,–
"CCC(C)OC(=O)C(C)=CC=CC(C)=CC=CC=C(C)C=CC=C(C)C=CC1=C(C)CCCC1(C)C (stereo not drawn) [(5), sec. butyl beta-apo-8′-carotenoate]",100,101,+,100,101,+,53,94,74,–,–,–,–,–,–,–,"Color Fan Value % of Controls [3, 9]: 88%; Chroma C*ab % of Controls [3, 10]: 103%; Color Hue h*ab % of Controls [3, 10]: 102%; Color Fan Value % of Controls ([3]; trials H-18, 22/99, 1, 2, 4, 5, 8 mg/kg feed, comparison within same trials, Table 10): 93^1) %; Deposition Rate Target Values % of Controls [4, 9]: 97%; Ethyl β-apo-8′-carotenoate Equivalents % of Controls [4, 9]: 90%; Deposition Rate % of Controls ([4]; trials H-18, 22/99, 1, 2, 4, 5, 8 mg/kg feed, comparison within same trials): 84^1) %"
"CCOC(=O)/C(C)=C/C=C/C(C)=C/C=C/C=C(C)/C=C/C=C(C)/C=C/C1=C(C)CCCC1(C)C [Ethyl β-apo-8′-carotenoate, ethyl beta-apo-8′-carotenoate, reference compound]",–,–,–,–,–,–,–,–,–,–,–,–,–,–,–,–,"Color Fan Value % of Controls [3, 11]: 100%; Deposition Rate Target Values % of Controls [4, 11]: 100%; Ethyl β-apo-8′-carotenoate Equivalents % of Controls [4, 11]: 100%"
